From patent US20230101747A1 (Schrödinger, Inc., priority 2019, published 2023)

The compounds below were run against T1, Full length human CDC7 protein co-expressed with DBF4 (Homo sapiens, UniProt O00311) (assay: CDC7 kinase biochemical assay (ADP-Glo, PDKtide substrate)). Settings: 0.1 nM CDC7/DBF4, 1 uM ATP, 10 uM PDKtide, 4 h; read-out: CDC7 ADP-Glo PDKtide IC50.
T1 construct: Full length human CDC7 protein co-expressed with DBF4; purchased SignalChem (China)
Procedure: CDC7 Kinase Biochemical Assay Protocol:
Full length human CDC7 protein co-expressed with DBF4 was purchased from SignalChem (China). CDC7 kinase activity was determined with PDKtide (SignalChem) as a substrate and by measuring ADP production using the ADP-Glo™ Kinase Assay kit (Promega) following the manufacturers instructions. The kinase reaction was performed using the following conditions: Buffer: 40 mM Tris pH 7.5, 20 mM MgCl2, 0.1 mg/ml BSA and 50 uM DTT. Final reaction mix contained 0.1 nM CDC7/DBF4, 1 uM ATP and 10 uM PDKtide. The kinase reaction time was 4 h. The ADP-Glo signal was measured using an EnVision plate reader (PerkinELmer).
Percent inhibition of CDC7 kinase activity was calculated based on the following formula: […]
SSample: the signal of compounds SHigh ctrl: the signal of high control (DMSO) SLow Ctrl: the signal of low control (positive control CDC7 inhibitor)

T1 sequence (O00311 whole entry): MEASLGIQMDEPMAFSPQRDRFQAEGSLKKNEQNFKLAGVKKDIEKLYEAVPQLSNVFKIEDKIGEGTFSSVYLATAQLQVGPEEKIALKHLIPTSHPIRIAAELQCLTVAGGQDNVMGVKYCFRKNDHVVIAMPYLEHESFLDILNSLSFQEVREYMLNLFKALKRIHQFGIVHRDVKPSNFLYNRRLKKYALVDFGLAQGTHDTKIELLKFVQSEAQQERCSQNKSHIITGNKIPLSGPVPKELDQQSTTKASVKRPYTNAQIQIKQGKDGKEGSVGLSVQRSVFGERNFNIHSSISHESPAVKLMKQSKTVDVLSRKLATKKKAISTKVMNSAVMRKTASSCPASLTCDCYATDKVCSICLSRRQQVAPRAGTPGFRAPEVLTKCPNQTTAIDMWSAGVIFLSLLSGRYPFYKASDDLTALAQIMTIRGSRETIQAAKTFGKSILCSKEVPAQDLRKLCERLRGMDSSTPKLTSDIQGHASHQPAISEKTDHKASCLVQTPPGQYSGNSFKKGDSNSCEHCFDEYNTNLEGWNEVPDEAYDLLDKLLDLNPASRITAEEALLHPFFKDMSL
T1 sequence (Q9UBU7 whole entry partner): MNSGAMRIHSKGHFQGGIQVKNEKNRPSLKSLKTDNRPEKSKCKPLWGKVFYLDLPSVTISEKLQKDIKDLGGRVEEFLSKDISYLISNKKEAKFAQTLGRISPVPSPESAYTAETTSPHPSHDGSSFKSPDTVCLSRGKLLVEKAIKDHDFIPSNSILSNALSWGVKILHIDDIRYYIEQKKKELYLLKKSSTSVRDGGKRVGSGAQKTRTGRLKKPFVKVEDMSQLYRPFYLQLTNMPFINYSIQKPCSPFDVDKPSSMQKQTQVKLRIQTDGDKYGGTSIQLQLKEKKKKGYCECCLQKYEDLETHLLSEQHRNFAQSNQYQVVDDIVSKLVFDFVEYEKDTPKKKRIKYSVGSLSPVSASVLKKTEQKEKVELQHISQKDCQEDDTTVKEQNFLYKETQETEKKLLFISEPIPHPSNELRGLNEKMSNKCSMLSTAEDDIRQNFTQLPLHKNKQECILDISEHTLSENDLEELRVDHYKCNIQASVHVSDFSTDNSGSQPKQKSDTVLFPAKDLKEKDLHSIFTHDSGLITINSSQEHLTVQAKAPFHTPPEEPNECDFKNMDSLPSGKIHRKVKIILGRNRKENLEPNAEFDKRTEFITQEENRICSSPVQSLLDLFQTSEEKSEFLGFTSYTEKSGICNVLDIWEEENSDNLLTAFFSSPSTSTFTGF

IC50 [nM] | Compound
1 to 10 | CC1(C)NC(=O)c2sc(-c3ccnc4[nH]ccc34)c3c2N1CCO3 [Compound 14, 6,6-dimethyl-2-(1H-pyrrolo[2,3-b]pyridin-4-yl)-4,5,6,7-tetrahydro-8H-3-oxa-1-thia-5a,7-diazaacenaphthylen-8-one]
< 1 | C[C@H]1CN2CCOc3c(-c4ccncc4)sc(c32)C(=O)N1 [Compound 15, (S)-7-methyl-2-(pyridin-4-yl)-4,5,7,8-tetrahydro-3-oxa-1-thia-5a,8-diazabenzo[cd]azulen-9(6H)-one]
1 to 10 | Cc1n[nH]cc1-c1sc2c3c1OCCN3C[C@H](C)NC2=O [Compound 17]
< 1 | C[C@H]1CN2CCOc3c(-c4ccnc5[nH]ccc45)sc(c32)C(=O)N1 [Compound 18, (S)-7-methyl-2-(1H-pyrrolo[2,3-b]pyridin-4-yl)-4,5,7,8-tetrahydro-3-oxa-1-thia-5a,8-diazabenzo[cd]azulen-9(6H)-one]
< 1 | C[C@H]1CN2C(=O)COc3c(-c4cn[nH]c4)sc(c32)C(=O)N1 [Compound 20, (S)-7-methyl-2-(1H-pyrazol-4-yl)-7,8-dihydro-3-oxa-1-thia-5a,8-diazabenzo[cd]azulene-5,9(4H,6H)-dione]
1 to 10 | C[C@@H]1CNC(=O)c2sc(-c3ccncc3)c3c2N1C(=O)CO3 [Compound 22, (R)-6-methyl-2-(pyridin-4-yl)-7,8-dihydro-3-oxa-1-thia-5a,8-diazabenzo[cd]azulene-5,9(4H,6H)-dione]
1 to 10 | C[C@H]1CNC(=O)c2sc(-c3ccncc3)c3c2N1CCO3 [Compound 24, (S)-6-methyl-2-(pyridin-4-yl)-4,5,7,8-tetrahydro-3-oxa-1-thia-5a,8-diazabenzo[cd]azulen-9(6H)-one]
< 1 | C[C@H]1CNC(=O)c2sc(-c3cn[nH]c3)c3c2N1CCO3 [Compound 25, (S)-6-methyl-2-(1H-pyrazol-4-yl)-4,5,7,8-tetrahydro-3-oxa-1-thia-5a,8-diazabenzo[cd]azulen-9(6H)-one]
< 1 | O=C1NCC(C2CCOCC2)N2CCOc3c(-c4cn[nH]c4)sc1c32 (stereo not drawn) [Compound 26, 2-(1H-pyrazol-4-yl)-6-(tetrahydro-2H-pyran-4-yl)-4,5,7,8-tetrahydro-3-oxa-1-thia-5a,8-diazabenzo[cd]azulen-9(6H)-one]
1 to 10 | C[C@H]1CN2C(=O)CCc3c(-c4cn[nH]c4)sc(c32)C(=O)N1 [Compound 29, (S)-7-methyl-2-(1H-pyrazol-4-yl)-3,4,7,8-tetrahydro-5H-1-thia-5a,8-diazabenzo[cd]azulene-5,9(6H)-dione]
1 to 10 | C[C@H]1CN2CCCc3c(-c4ccncc4)sc(c32)C(=O)N1 [Compound 31, (S)-7-methyl-2-(pyridin-4-yl)-4,5,7,8-tetrahydro-3H-1-thia-5a,8-diazabenzo[cd]azulen-9(6H)-one]
< 1 | O=C1NC[C@@H](CO)N2CCOc3c(-c4cn[nH]c4)sc1c32 [Compound 34, (S)-6-(hydroxymethyl)-2-(1H-pyrazol-4-yl)-4,5,7,8-tetrahydro-3-oxa-1-thia-5a,8-diazabenzo[cd]azulen-9(6H)-one]
1 to 10 | O=C1NC[C@H](COCc2ccccc2)N2CCOc3c(-c4cn[nH]c4)sc1c32 [Compound 35, (R)-6-((benzyloxy)methyl)-2-(1H-pyrazol-4-yl)-4,5,7,8-tetrahydro-3-oxa-1-thia-5a,8-diazabenzo[cd]azulen-9(6H)-one]
1 to 10 | O=C1NC[C@H](CN2CCC2)N2CCOc3c(-c4cn[nH]c4)sc1c32 [Compound 36, (R)-6-(azetidin-1-ylmethyl)-2-(1H-pyrazol-4-yl)-4,5,7,8-tetrahydro-3-oxa-1-thia-5a,8-diazabenzo[cd]azulen-9(6H)-one]
< 1 | CNC[C@H]1CNC(=O)c2sc(-c3cn[nH]c3)c3c2N1CCO3 [Compound 37, (S)-6-((methylamino)methyl)-2-(1H-pyrazol-4-yl)-4,5,7,8-tetrahydro-3-oxa-1-thia-5a,8-diazabenzo[cd]azulen-9(6H)-one]
1 to 10 | O=C1N[C@@H](CN2CCC2)CN2CCOc3c(-c4cn[nH]c4)sc1c32 [Compound 40, (S)-7-(azetidin-1-ylmethyl)-2-(1H-pyrazol-4-yl)-4,5,7,8-tetrahydro-3-oxa-1-thia-5a,8-diazabenzo[cd]azulen-9(6H)-one]

IC50 [nM] | Compound
> 10 | Cc1cnn(C[C@H]2CNC(=O)c3sc(-c4cn[nH]c4)c4c3N2CCO4)c1 [Compound 42, (R)-6-((4-methyl-1H-pyrazol-1-yl)methyl)-2-(1H-pyrazol-4-yl)-4,5,7,8-tetrahydro-3-oxa-1-thia-5a,8-diazabenzo[cd]azulen-9(6H)-one]
< 1 | Cc1ccn(C[C@H]2CN3CCOc4c(-c5cn[nH]c5)sc(c43)C(=O)N2)n1 [Compound 43, (R)-7-((3-methyl-1H-pyrazol-1-yl)methyl)-2-(1H-pyrazol-4-yl)-4,5,7,8-tetrahydro-3-oxa-1-thia-5a,8-diazabenzo[cd]azulen-9(6H)-one]
< 1 | Cc1ccnn1C[C@H]1CN2CCOc3c(-c4cn[nH]c4)sc(c32)C(=O)N1 [Compound 44, (R)-7-((5-methyl-1H-pyrazol-1-yl)methyl)-2-(1H-pyrazol-4-yl)-4,5,7,8-tetrahydro-3-oxa-1-thia-5a,8-diazabenzo[cd]azulen-9(6H)-one]
1 to 10 | Cc1cnn(C[C@H]2COc3c(-c4cn[nH]c4)sc4c3N2CCNC4=O)c1 [Compound 45, (S)-5-((4-methyl-1H-pyrazol-1-yl)methyl)-2-(1H-pyrazol-4-yl)-4,5,7,8-tetrahydro-3-oxa-1-thia-5a,8-diazabenzo[cd]azulen-9(6H)-one]
1 to 10 | O=C1NC[C@@H](CN2CCC2)N2CCOc3c(-c4cn[nH]c4)sc1c32 [Compound 46, (S)-6-(azetidin-1-ylmethyl)-2-(1H-pyrazol-4-yl)-4,5,7,8-tetrahydro-3-oxa-1-thia-5a,8-diazabenzo[cd]azulen-9(6H)-one]
< 1 | CNC[C@H]1CN2CCOc3c(-c4cn[nH]c4)sc(c32)C(=O)N1 [Compound 47, (S)-7-((methylamino)methyl)-2-(1H-pyrazol-4-yl)-4,5,7,8-tetrahydro-3-oxa-1-thia-5a,8-diazabenzo[cd]azulen-9(6H)-one]
< 1 | O=C1N[C@@H](CO)CN2CCOc3c(-c4cn[nH]c4)sc1c32 [Compound 48, (R)-7-(hydroxymethyl)-2-(1H-pyrazol-4-yl)-4,5,7,8-tetrahydro-3-oxa-1-thia-5a,8-diazabenzo[cd]azulen-9(6H)-one]
1 to 10 | Cn1ccc(C2CN3CCOc4c(-c5cn[nH]c5)sc(c43)C(=O)N2)n1 (stereo not drawn) [Compound 52]
1 to 10 | COC(=O)[C@@H]1CN2C(=O)COc3c(-c4cn[nH]c4)sc(c32)C(=O)N1 [Compound 53, Methyl (S)-5,9-dioxo-2-(1H-pyrazol-4-yl)-4,5,6,7,8,9-hexahydro-3-oxa-1-thia-5a,8-diazabenzo[cd]azulene-7-carboxylate]
1 to 10 | COC[C@@H]1CN(C)C(=O)c2sc(-c3cn[nH]c3)c3c2N1CCO3 [Compound 56, (S)-6-(methoxymethyl)-8-methyl-2-(1H-pyrazol-4-yl)-4,5,7,8-tetrahydro-3-oxa-1-thia-5a,8-diazabenzo[cd]azulen-9(6H)-one]
< 1 | CC(=O)NC[C@@H]1COc2c(-c3cn[nH]c3)sc3c2N1CCNC3=O [Compound 57, N-[[(7R)-12-oxo-3-(1H-pyrazol-4-yl)-5-oxa-2-thia-8,11-diazatricyclo[6.4.1.0^4,13]trideca-1(13),3-dien-7-yl]methyl]acetamide]
< 1 | O=C1NCCN2c3c1sc(-c1cn[nH]c1)c3OC[C@H]2CNC(=O)C1CCC1 [Compound 58, (R)—N-((9-oxo-2-(1H-pyrazol-4-yl)-4,5,6,7,8,9-hexahydro-3-oxa-1-thia-5a,8-diazabenzo[cd]azulen-5-yl)methyl)cyclobutanecarboxamide]
< 1 | N#CC[C@@H]1CNC(=O)c2sc(-c3cn[nH]c3)c3c2N1CCO3 [Compound 59, (R)-2-(9-oxo-2-(1H-pyrazol-4-yl)-4,5,6,7,8,9-hexahydro-3-oxa-1-thia-5a,8-diazabenzo[cd]azulen-6-yl)acetonitrile]
1 to 10 | COC(=O)C[C@@H]1CNC(=O)c2sc(-c3cn[nH]c3)c3c2N1CCO3 [Compound 60, methyl (R)-2-(9-oxo-2-(1H-pyrazol-4-yl)-4,5,6,7,8,9-hexahydro-3-oxa-1-thia-5a,8-diazabenzo[cd]azulen-6-yl)acetate]
< 1 | Cc1ccn(C[C@@H]2CNC(=O)c3sc(-c4cn[nH]c4)c4c3N2CCO4)n1 [Compound 61, (S)-6-((3-methyl-1H-pyrazol-1-yl)methyl)-2-(1H-pyrazol-4-yl)-4,5,7,8-tetrahydro-3-oxa-1-thia-5a,8-diazabenzo[cd]azulen-9(6H)-one]

Same assay, conditions: CDC7 ADP-Glo PDKtide IC50, 0.1 nM CDC7/DBF4, 1 uM ATP, 10 uM PDKtide, 4 h

Compound | IC50 [nM]
O=C1N[C@H](C2CCC2)CN2C(=O)COc3c(-c4cn[nH]c4)sc1c32 [Compound 21, (R)-7-cyclobutyl-2-(1H-pyrazol-4-yl)-7,8-dihydro-3-oxa-1-thia-5a,8-diazabenzo[cd]azulene-5,9(4H,6H)-dione] | 1 to 10
O=C1N[C@@H](C2CCC2)C(=O)N2CCOc3c(-c4cn[nH]c4)sc1c32 [Compound 23, (S)-7-cyclobutyl-2-(1H-pyrazol-4-yl)-4,5,7,8-tetrahydro-3-oxa-1-thia-5a,8-diazabenzo[cd] azulene-6,9-dione] | > 10
